# “And” between values parts separate entries of the source, which are not always exact repeats. Equal entries are not always repeated. Where two headings read alike, the source gives them in different places.
# What was measured:
# IκB = IκB phosphorylation and expression (Western blot); type: cell-based, human; details: 3 days
# Method: The cells were then washed in PBS, resuspended in 1 ml of T40E10N150 buffer (40 mM Tris-HCl [pH 7.9], 10 mM EDTA [pH 8.0], 150 mM NaCl), put on ice for 5 minutes, and centrifuged for 4 minutes at 4° C. at 1,000 rpm. The cell pellet was then resuspended on ice in 70 μl of buffer (10 mM HEPES [pH 8.0], 400 mM NaCl, 0.1 mM EDTA, 5% glycerol, 1 mM DTT, 1 mM PMSF) and centrifuged at 15,000 rpm for 30 minutes at 4° C. The protein concentrations in supernatants were determined with the Bio-Rad Protein Assay (Bio-Rad; Munich, Germany).
# Western blots: Equal amounts of extract (30 μg) were added to 8 μl of electrophoresis sample buffer (Firma Roth; Karlsruhe, Germany). After boiling, the extracts were loaded on 15% SDS-PAGE gels and electrophoretically separated. Proteins were transferred to nitrocellulose membranes, and detection was performed with the ECL Western blotting analysis system (Amersham). […]
# NF-κB p50/p65 = assay: NF-κB electrophoretic mobility shift assay; type: cell-based, human; details: EMSA
# Method: Isolation of nuclear proteins: T lymphocytes were washed twice in cold PBS and resuspended in 500 μl of buffer A (10 mM HEPES, 1.5 mM MgCl2, 19 mM KCl, 0.5 mM PMSF, 1 mM DTT) followed by addition of 20 μl of Triton X-100 (Sigma-Aldrich) and incubation on ice for 5 minutes. Cells were centrifuged for 10 minutes at 4° C., followed by the resuspension of the nuclear pellet in buffer C (20 mM HEPES, 1.5 mM MgCl2, 0.2 mM EDTA, 25% glycerol, 0.5 mM PMSF, 1 mM DTT). Finally, the nuclei were homogenized using mini stir bars for 1 hour at 4° C. followed by centrifugation at 15,000 rpm for 15 minutes at 4° C. The concentration of nuclear proteins in supernatants was assessed using the Bio-Rad Protein Assay.
# Electrophoretic mobility shift assays: Electrophoretic mobility shift assays (EMSAs) were performed as described in Atreya et al., supra. Oligonucleotides for EMSA were obtained from Santa Cruz Biotech (Heidelberg, Germany). The sequences were as follows: NF-κB, 5′-[sequence]-3′ (SEQ ID NO: 1) and 3′-[sequence]-5′ (SEQ ID NO: 2); and SP-1,5′-[sequence]-3′ (SEQ ID NO: 3) and 3′-[sequence]-5′ (SEQ ID NO: 4). Oligonucleotides were end labeled with [^32P]γ-ATP (>5000 Ci/mmol; Amersham; Arlington Heights, Ill., USA) using T4 polynucleotide kinase (New England Biolabs; Beverly, Mass., USA). […]
# Rac1 = details: primary T cells upon azathioprine treatment
# [1] = all 47 CD patients
# Method: Blood Sampling: Blood samples from patients were collected into EDTA tubes and the packed red blood cells (RBCs) were isolated by centrifugation within 6 hours after blood drawing. The RBCs were immediately frozen at −80° C. until analysis.
# 6-thioguanine nucleotides (6-TGN) and the methylated metabolites S-methyl-mercaptopurine ribonucleotides (6-MMPR) and S-methyl 6-thioguanosine nucleotides (MTGN) were quantified by a high-performance liquid chromatographic (HPLC) assay as described in Herrlinger et al., Aliment Pharmacol Ther. 19:1269-1276 (2004).
# The concentrations of 6-thioguanosine 5′-mono-, di-, and triphosphate (TGMP, TGDP, and TGTP, respectively) were determined separately by the method described in Example 2 above. […] The 5′-phosphates were isolated, extracted, and oxidized as described by Rabel et al., Anal. Biochem. 224:315-322 (1995) with slight modifications. HPLC separation was achieved by reversed phase HPLC on a C18 column with phosphate buffer (20 mM, pH 6.8) and 5 mM tetrabutylammonium hydrogen sulfate/acetonitrile 84:16 (v/v) as the mobile phase. Using fluorescence detection, quantification of 6-thioguanosine nucleotides was performed at concentration ranges of 25 to 400 pmol/100 μL RBC for TGTP, 10 to 100 pmol/100 μL for TGDP, and 10 to 50 pmol/100 μL RBC for TGMP.
# Crohn's disease = details: CD patients, long-term azathioprine
# Method: The diagnosis of CD was confirmed in all patients by radiographic, endoscopic, and histopathologic parameters. Clinical outcomes such as the Crohn's disease activity index (CDAI), number of flares per year, and demand for anti-TNF antibody (e.g., infliximab) treatment were determined on clinical visits.
# [2] = subgroup n=6 (low 6-TGN, low TGTP ratio)
# [3] = subgroup n=13 (high 6-TGN and TGDP levels, ratio less than about 0.85)
# [4] = subgroup n=13 (high 6-TGN and TGTP levels, ratio greater than about 0.85)
# [5] = subgroup n=15 (low 6-TGN, high TGTP ratio)
# [6] = subgroup n=21 (low 6-TGN levels)
# [7] = subgroup n=26 (high 6-TGN levels)
smiles,measurement,setting,value
"Sc1ncnc2nc[nH]c12 [6-MP, 6-mercaptopurine]",IκB phosphorylation,IκB,suppressed
same,IκB protein expression levels,IκB,unchanged
same,nuclear expression of the p65 subunit of NF-κB,NF-κB p50/p65,downregulated
same,CD28-induced activation of NF-κB p50/p65,NF-κB p50/p65; nuclear proteins after 3 days,suppressed
"Cn1cnc([N+](=O)[O-])c1Sc1ncnc2nc[nH]c12 [azathioprine, Azathioprine]",6-TG detected in Rac1 pull-downs,Rac1,approximately 120 pg of 6-TG per microgram
same,TGMP levels in RBC,[1],only detectable in traces
same,CDAI (Crohn's disease activity index),Crohn's disease; [2],151 ± 55
same,Flares (number of flares per year),Crohn's disease; [2],1.4 ± 1.3
same,INF (infliximab use),Crohn's disease; [2],1.0 ± 0.6
same,Response (clinical response rate),Crohn's disease; [2],0.5 ± 0.3
same,CDAI (Crohn's disease activity index),Crohn's disease; [3],277 ± 62
same,Flares (number of flares per year),Crohn's disease; [3],2.1 and 2.1 ± 0.9
same,INF (infliximab use),Crohn's disease; [3],1.1 and 1.1 ± 0.5
same,Response (clinical response rate),Crohn's disease; [3],0.15 and 0.15 ± 0.1
same,CDAI (Crohn's disease activity index),Crohn's disease; [4],149 ± 35
same,INF (infliximab use),Crohn's disease; [4],0.36 and 0.36 ± 0.2
same,CDAI (Crohn's disease activity index),Crohn's disease; [5],189 ± 28
same,Flares (number of flares per year),Crohn's disease; [5],1.9 ± 1
same,INF (infliximab use),Crohn's disease; [5],1.1 ± 0.7
same,Response (clinical response rate),Crohn's disease; [5],0.1 ± 0.1
same,CDAI (Crohn's disease activity index),Crohn's disease; [6],176 ± 26
same,Flares (number of flares per year),Crohn's disease; [6],2.1 ± 0.9
same,INF (infliximab use),Crohn's disease; [6],1.1 ± 0.5
same,Response (clinical response rate),Crohn's disease; [6],0.16 and 0.16 ± 0.1
same,CDAI (Crohn's disease activity index),Crohn's disease; [7],206 ± 36
same,Flares (number of flares per year),Crohn's disease; [7],1.1 ± 0.6
same,INF (infliximab use),Crohn's disease; [7],0.7 ± 0.3
